Experimental data as given in the NIST ThermoML archive (doi:10.1016/j.fluid.2015.03.016).
Where “and” joins values, the source holds several entries; their conditions need not be identical. Equal entries are not always repeated. Numbers after ± are expanded uncertainties.

Conditions: Liquid, Vibrating wire viscometry

For `CCCCOC(=O)CCCCC(=O)OCCCC` [dibutyl hexanedioate], the viscosity (333.15 K, 5090 kPa) was 2.366 ± 0.04 mPa·s, the viscosity (333.15 K, 5100 kPa) was 2.361 ± 0.04 mPa·s and 2.362 ± 0.04 mPa·s and the viscosity (333.15 K, 5210 kPa) was 2.361 ± 0.044 mPa·s and 2.365 ± 0.043 mPa·s. For the same compound, the viscosity (333.15 K, 5220 kPa) was 2.366 ± 0.043 mPa·s, the viscosity (333.15 K, 7790 kPa) was 2.42 ± 0.041 mPa·s and 2.421 ± 0.041 mPa·s and the viscosity (333.15 K, 7800 kPa) was 2.421 ± 0.041 mPa·s. It also gave a viscosity (333.15 K, 10100 kPa) of 2.493 ± 0.042 mPa·s, a viscosity (333.15 K, 10120 kPa) of 2.495 ± 0.042 mPa·s and a viscosity (333.15 K, 10130 kPa) of 2.495 ± 0.042 mPa·s. For the same compound, the viscosity (333.15 K, 10160 kPa) was 2.493 ± 0.042 mPa·s, the viscosity (333.15 K, 14860 kPa) was 2.621 ± 0.053 mPa·s and the viscosity (333.15 K, 15150 kPa) was 2.62 ± 0.053 mPa·s. The viscosity (333.15 K, 15240 kPa) was 2.619 ± 0.049 mPa·s, the viscosity (333.15 K, 15260 kPa) was 2.625 ± 0.048 mPa·s and the viscosity (333.15 K, 20250 kPa) was 2.763 ± 0.046 mPa·s. The viscosity (333.15 K, 20260 kPa) was 2.76 ± 0.046 mPa·s, the viscosity (333.15 K, 20270 kPa) was 2.761 ± 0.046 mPa·s and the viscosity (333.15 K, 20290 kPa) was 2.76 ± 0.046 mPa·s. It also gave a viscosity (333.15 K, 29840 kPa) of 3.05 ± 0.058 mPa·s, a viscosity (333.15 K, 29880 kPa) of 3.043 ± 0.063 mPa·s and a viscosity (333.15 K, 30130 kPa) of 3.05 ± 0.064 mPa·s. For the same compound, the viscosity (333.15 K, 30150 kPa) was 3.042 ± 0.061 mPa·s, the viscosity (333.15 K, 30230 kPa) was 3.047 ± 0.056 mPa·s and the viscosity (333.15 K, 39970 kPa) was 3.331 ± 0.055 mPa·s. For the same compound, the viscosity (333.15 K, 40020 kPa) was 3.332 ± 0.055 mPa·s, the viscosity (333.15 K, 40070 kPa) was 3.33 ± 0.055 mPa·s and the viscosity (333.15 K, 40080 kPa) was 3.335 ± 0.055 mPa·s. The viscosity (333.15 K, 49990 kPa) was 3.644 ± 0.061 mPa·s, the viscosity (333.15 K, 50000 kPa) was 3.638 ± 0.06 mPa·s and 3.636 ± 0.06 mPa·s and 3.632 ± 0.06 mPa·s and the viscosity (333.15 K, 61450 kPa) was 4.065 ± 0.07 mPa·s. It also gave a viscosity (333.15 K, 61480 kPa) of 4.064 ± 0.07 mPa·s, a viscosity (333.15 K, 61600 kPa) of 4.055 ± 0.067 mPa·s and a viscosity (333.15 K, 61660 kPa) of 4.057 ± 0.069 mPa·s. The viscosity (333.16 K, 2490 kPa) was 2.298 ± 0.039 mPa·s, the viscosity (333.16 K, 2580 kPa) was 2.299 ± 0.039 mPa·s and the viscosity (333.16 K, 5220 kPa) was 2.361 ± 0.044 mPa·s. The viscosity (333.16 K, 7780 kPa) was 2.422 ± 0.041 mPa·s, the viscosity (343.14 K, 20120 kPa) was 2.335 ± 0.039 mPa·s and 2.332 ± 0.039 mPa·s and the viscosity (343.14 K, 39830 kPa) was 2.803 ± 0.047 mPa·s. It also gave a viscosity (343.14 K, 39840 kPa) of 2.809 ± 0.047 mPa·s, a viscosity (343.14 K, 39860 kPa) of 2.807 ± 0.047 mPa·s and a viscosity (343.14 K, 39870 kPa) of 2.804 ± 0.047 mPa·s. For the same compound, the viscosity (343.14 K, 39880 kPa) was 2.81 ± 0.047 mPa·s, the viscosity (343.14 K, 65480 kPa) was 3.489 ± 0.058 mPa·s and the viscosity (343.14 K, 65500 kPa) was 3.484 ± 0.058 mPa·s. For the same compound, the viscosity (343.15 K, 1100 kPa) was 1.917 ± 0.04 mPa·s and 1.916 ± 0.04 mPa·s, the viscosity (343.15 K, 1170 kPa) was 1.915 ± 0.032 mPa·s and the viscosity (343.15 K, 1240 kPa) was 1.914 ± 0.032 mPa·s. The viscosity (343.15 K, 1260 kPa) was 1.918 ± 0.035 mPa·s and 1.915 ± 0.036 mPa·s, the viscosity (343.15 K, 2480 kPa) was 1.949 ± 0.033 mPa·s and the viscosity (343.15 K, 2500 kPa) was 1.945 ± 0.033 mPa·s and 1.947 ± 0.033 mPa·s. It also gave a viscosity (343.15 K, 2520 kPa) of 1.948 ± 0.033 mPa·s, a viscosity (343.15 K, 2530 kPa) of 1.95 ± 0.033 mPa·s and a viscosity (343.15 K, 2580 kPa) of 1.946 ± 0.033 mPa·s. It also gave a viscosity (343.15 K, 4960 kPa) of 1.993 ± 0.034 mPa·s, a viscosity (343.15 K, 4970 kPa) of 1.994 ± 0.034 mPa·s and a viscosity (343.15 K, 4980 kPa) of 1.992 ± 0.034 mPa·s. The viscosity (343.15 K, 4990 kPa) was 1.989 ± 0.034 mPa·s, the viscosity (343.15 K, 7500 kPa) was 2.054 ± 0.035 mPa·s and the viscosity (343.15 K, 7510 kPa) was 2.057 ± 0.035 mPa·s and 2.059 ± 0.035 mPa·s. For the same compound, the viscosity (343.15 K, 7520 kPa) was 2.056 ± 0.035 mPa·s, the viscosity (343.15 K, 10030 kPa) was 2.118 ± 0.036 mPa·s and the viscosity (343.15 K, 10040 kPa) was 2.117 ± 0.036 mPa·s and 2.119 ± 0.036 mPa·s. It also gave a viscosity (343.15 K, 10090 kPa) of 2.117 ± 0.036 mPa·s, a viscosity (343.15 K, 15220 kPa) of 2.224 ± 0.037 mPa·s and a viscosity (343.15 K, 15240 kPa) of 2.222 ± 0.037 mPa·s. For the same compound, the viscosity (343.15 K, 15260 kPa) was 2.221 ± 0.037 mPa·s, the viscosity (343.15 K, 20040 kPa) was 2.334 ± 0.048 mPa·s and the viscosity (343.15 K, 20160 kPa) was 2.337 ± 0.039 mPa·s. For the same compound, the viscosity (343.15 K, 20210 kPa) was 2.335 ± 0.057 mPa·s and the viscosity (343.15 K, 20240 kPa) was 2.332 ± 0.047 mPa·s.
